Results from patent US20260327243A1, “SPIRO-HETEROCYCLIC INHIBITORS OF KRAS G12C MUTANT PROTEINS AND USES THEREOF” (AMGEN INC., priority 2023, published 2026).

These molecules were tested against KRAS^G12C (Homo sapiens, UniProt P01116, C118A/G12C) (assay: Coupled Nucleotide Exchange Assay). Conditions: GDP-bound KRAS (aa 1-169) G12C/C118A; 2 h compound pre-incubation; SOS-mediated exchange, 30 min; cRAF binding (AlphaLISA).
Type: biochemical
Experimental: The KRAS^G12C coupled nucleotide exchange assay allows for the screening and profiling of KRAS^G12C antagonists/inhibitors by monitoring the binding of an effector protein (e.g., a Ras binding domain of Raf1, RBD-cRaf) to KRAS^G12C. Purified GDP-bound KRAS protein (aa 1-169), containing both G12C and C118A amino acid substitutions and an N-terminal His-tag, was pre-incubated in assay buffer (25 mM HEPES pH 7.4, 10 mM MgCl2, 0.01% Triton X-100, either with or without 0.1% BSA) with serially diluted compound for 2 h. For all subsequent steps, BSA was omitted and DTT was added to the reaction buffer at a final concentration of 1 mM. Following compound pre-incubation, purified SOS protein (aa 564-1049) and GTP (Roche 10106399001) were added to the assay wells and incubated for an additional 30 min. To determine the extent of inhibition of SOS-mediated nucleotide exchange, purified GST-tagged cRAF (aa 1-149), nickel chelate AlphaLISA acceptor beads (PerkinElmer AL108R), and AlphaScreen glutathione donor beads (PerkinElmer 6765302) were added to the assay wells and incubated for 5-30 min. The assay plates were then read on a plate reader measuring luminescence signal. Signal intensity of compound-containing wells were normalized to DMSO control, and data were analyzed using a 4-parameter logistic model to calculate IC50 values.

Sequence of KRAS^G12C (P01116 1-169 isoform P01116-2 G12C/C118A): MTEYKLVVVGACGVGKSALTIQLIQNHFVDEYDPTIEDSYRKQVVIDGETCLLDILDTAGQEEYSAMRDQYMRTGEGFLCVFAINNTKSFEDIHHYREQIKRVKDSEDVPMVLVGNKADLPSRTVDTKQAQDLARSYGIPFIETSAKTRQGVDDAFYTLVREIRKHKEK

Row | IC50 [nM] | SMILES
1 | 2750 | C=CC(=O)N1CCN(C2CN(c3cc(N4CCC5(CC4)OC(=O)NC5(C)C)nc(C(F)(F)F)c3C#N)C2)CC1 [Compound 3-032, 4-(3-(4-acryloylpiperazin-1-yl)azetidin-1-yl)-6-(4,4-dimethyl-2-oxo-1-oxa-3,8-diazaspiro[4.5]decan-8-yl)-2-(trifluoromethyl)nicotinonitrile]
2 | 2290 | C=CC(=O)N1CCN(C2CN(c3cc(N4CCC5(CC4)CCN(C4COC4)C5)nc(C(F)(F)F)c3C#N)C2)CC1 [Compound 3-048, 4-(3-(4-acryloylpiperazin-1-yl)azetidin-1-yl)-6-(2-(oxetan-3-yl)-2,8-diazaspiro[4.5]decan-8-yl)-2-(trifluoromethyl)nicotinonitrile]
3 | 3300 | C=CC(=O)N1CCN(C2CN(c3cc(N4CCC5(CC4)CC(F)(F)C5)nc(C(F)(F)F)c3C#N)C2)CC1 [Compound 3-037, 4-(3-(4-acryloylpiperazin-1-yl)azetidin-1-yl)-6-(2,2-difluoro-7-azaspiro[3.5]nonan-7-yl)-2-(trifluoromethyl)nicotinonitrile]
4 | 5700 | C=CC(=O)N1CCN(C2CN(c3cc(N4CCC5(CC4)CC5)nc(C(F)(F)F)c3C#N)C2)CC1 [Compound 3-038, 4-(3-(4-acryloylpiperazin-1-yl)azetidin-1-yl)-6-(6-azaspiro[2.5]octan-6-yl)-2-(trifluoromethyl)nicotinonitrile]
5 | 8680 | C=CC(=O)N1CCN(C2CN(c3cc(N4CCC5(CC4)CC(C)(O)CO5)nc(C(F)(F)F)c3C#N)C2)CC1 (centres unmarked) [Compound 3-029, 4-(3-(4-acryloylpiperazin-1-yl)azetidin-1-yl)-6-(3-hydroxy-3-methyl-1-oxa-8-azaspiro[4.5]decan-8-yl)-2-(trifluoromethyl)nicotinonitrile]
6 | 6350 | C=CC(=O)N1CCN(C2CN(c3cc(N4CCC5(CC4)CC(C)(C)CO5)nc(C(F)(F)F)c3C#N)C2)CC1 [Compound 3-045, 4-(3-(4-acryloylpiperazin-1-yl)azetidin-1-yl)-6-(3,3-dimethyl-1-oxa-8-azaspiro[4.5]decan-8-yl)-2-(trifluoromethyl)nicotinonitrile]
7 | 1540 | C=CC(=O)N1CCN(C2CN(c3cc(N4CCC5(C=C[C@H](C)O5)CC4)nc(C(F)(F)F)c3C#N)C2)CC1 [Compound 3-068-2, (S)-4-(3-(4-acryloylpiperazin-1-yl)azetidin-1-yl)-6-(2-methyl-1-oxa-8-azaspiro[4.5]dec-3-en-8-yl)-2-(trifluoromethyl)nicotinonitrile]
8 | 550 | C=CC(=O)N1CCN(C2CN(c3cc(N4CCC5(C=CC(C)O5)CC4)nc(C(F)(F)F)c3C#N)C2)CC1 (centres unmarked) [Compound 3-066, 4-(3-(4-acryloylpiperazin-1-yl)azetidin-1-yl)-6-(2-methyl-1-oxa-8-azaspiro[4.5]dec-3-en-8-yl)-2-(trifluoromethyl)nicotinonitrile]

Second part, the molecule before the results:

Row | SMILES | IC50 [nM]
9 | C=CC(=O)N1CCN([C@@H]2CN(c3cc(N4CCC5(C=CCO5)CC4)nc(C(F)(F)F)n3)[C@@H]2C)CC1 [Compound 3-011, 1-(4-((2R,3R)-1-(6-(1-oxa-8-aza-spiro[4.5]dec-3-en-8-yl)-2-(tri-fluoromethyl)pyrimidin-4-yl)-2-methylazetidin-3-yl)piperazin-1-yl)prop-2-en-1-one] | 964
10 | C=CC(=O)N1CCN([C@@H]2CN(c3cc(N4CCC5(CC4)C(C)=CCN5C)nc(C(F)(F)F)n3)[C@@H]2C)CC1 [Compound 3-055, 1-(4-((2R,3R)-1-(6-(1,4-Dimethyl-1,8-diazaspiro[4.5]dec-3-en-8-yl)-2-(trifluoromethyl)pyrimidin-4-yl)-2-methylazetidin-3-yl)piperazin-1-yl)prop-2-en1-one] | 1320
11 | C=CC(=O)N1CCN(C2CN(c3cc(N4C5CCC4CC4(CCCO4)C5)nc(C(F)(F)F)n3)C2)CC1 (centres unmarked) [Compound 3-025, 1-(4-(1-(6-(dihydro-3′H-8-azaspiro[bicyclo[3.2.1]octane-3,2′-furan]-8-yl)-2-(trifluoromethyl)pyrimidin-4-yl)azetidin-3-yl)piperazin-1-yl)prop-2-en-1-one] | 3720
12 | C=CC(=O)N1CCN(C2CN(c3cc(N4CCC5(CC4)OCc4cnn(C)c45)nc(C(F)(F)F)n3)C2)CC1 [Compound 3-047, 1-(4-(1-(6-(1-methyl-1,4-dihydrospiro[furo[3,4-c]pyrazole-6,4′-piperidin]-1′-yl)-2-(trifluoromethyl)pyrimidin-4-yl)azetidin-3-yl)piperazin-1-yl)prop-2-en-1-one] | 2690
13 | C=CC(=O)N1CCN([C@@H]2CN(c3cc(N4CCC5(C=CCO5)CC4)nc(C(F)F)n3)[C@@H]2C)CC1 [Compound 3-012, 1-(4-((2R,3R)-1-(2-(difluorometh-yl)-6-(1-oxa-8-azaspiro[4.5]dec-3-en-8-yl)pyrimidin-4-yl)-2-methyl-azetidin-3-yl)piperazin-1-yl)prop-2-en-1-one] | 2540
14 | C=CC(=O)N1CCN(C2CN(c3cc(N4CCC5(CC4)c4ccccc4C(=O)N5C)nc(C(F)(F)F)n3)C2)CC1 [Compound 3-013] | 5640
15 | C=CC(=O)N1CCN([C@@H]2CN(c3cc(N4CCC5(CC4)C(F)(F)C54CC4)nc(C(F)(F)F)n3)[C@@H]2C)CC1 [Compound 3-022, 1-(4-((2R,3R)-1-(6-(10.10-difluoro-7-azadispiro[2.0.5^4.1^3]decan-7-yl)-2-(trifluoromethyl)pyrimidin-4-yl)-2-methylazetidin-3-yl)piperazin-1-yl)prop-2-en-1-one] | 5610
16 | C=CC(=O)N1CCN([C@@H]2CN(c3cc(N4CCC5(CCC(=O)N5C)CC4)nc(C(F)(F)F)n3)[C@@H]2C)CC1 [Compound 3-020, 8-(6-((2R,3R)-3-(4-Acryloylpiperazin-1-yl)-2-methylazetidin-1-yl)-2-(trifluoromethyl)pyrimidin-4-yl)-1-methyl-1,8-diazaspiro[4.5]decan-2-one] | 1600
17 | C=CC(=O)N1CCN([C@@H]2CN(c3cc(N4C5CCC4CC4(CCCO4)C5)nc(C(F)(F)F)n3)[C@@H]2C)CC1 (stereo partly drawn) [Compound 3-026, 1-(4-((2R,3R)-1-(6-(dihydro-3′H-8-azaspiro[bicyclo[3.2.1]octane-3,2′-furan]-8-yl)-2-(trifluoromethyl)pyrimidin-4-yl)-2-methylazetidin-3-yl)piperazin-1-yl)prop-2-en-1-one] | 1950
18 | C=CC(=O)N1CCN([C@@H]2CN(c3cc(N4CCC5(C[C@@H]4C)OCC=C5C)nc(C(F)(F)F)n3)[C@@H]2C)CC1 (stereo partly drawn) [Compound 3-006, 1-(4-((2R,3R)-1-(6-(4,7-dimethyl-1-oxa-8-azaspiro[4.5]dec-3-en-8-yl)-2-(trifluoromethyl)pyrimidin-4-yl)-2-methylazetidin-3-yl)piper-azin-1-yl)prop-2-en-1-one] | 2240
19 | C=CC(=O)N1CCN(C2CN(c3cc(N4CCC5(CC4)OCCc4ccsc45)nc(C(F)(F)F)n3)C2)CC1 [Compound 3-064, 1-(4-(1-(6-(4′,5′-dihydrospiro[piperidine-4,7′-thieno[2,3-c]pyran]-1-yl)-2-(trifluoromethyl)pyrimidin-4-yl)azetidin-3-yl)piperazin-1-yl)prop-2-en-1-one] | 5700
20 | C=CC(=O)N1CCN(C2CN(c3cc(N4CCC5(CCc6ccccc65)CC4)nc(C(F)(F)F)n3)C2)CC1 [Compound 3-063, 1-(4-(1-(6-(2,3-Dihydrospiro[indene-1,4′-piperidin]-1′-yl)-2-(trifluoromethyl)pyrimidin-4-yl)azetidin-3-yl)piperazin-1-yl) prop-2-en-1-one] | 8240
